Reference: patent publication US20160009725A1, “PYRROLO- AND PYRAZOLO-TRIAZOLODIAZEPINES AS BET-PROTEIN INHIBITORS FOR TREATING HYPERPROLIFERATIVE DISEASES” (BAYER PHARMA AKTIENGESELLSCHAFT, priority 2013, published 2016)
pIC50: −log10 of the molar value. Read-outs that look alike come from different tables or passages of the source. Values belong to the molecule of their own block, whether it stands above or below them.

Tests used:
[1] = target: T1, BRD4 (BD1) (Homo sapiens, UniProt O60885); experiment: Binding assay BRD4/acetylated peptide H4 (TR-FRET protein-protein interaction assay)
T1 construct: N-terminally His6-tagged BRD4 (BD1) (amino acids 67-152, longer constructs also being possible, preferably amino acids 44-168); made in house; host or cells: E. coli
From the text: To assess the BRD4 binding strength of the substances described in this application, the ability thereof to inhibit the interaction between BRD4 (BD1) and acetylated histone H4 in a dose-dependent manner was quantified. For this purpose, a time-resolved fluorescence resonance energy transfer (TR-FRET) assay was used, which measures the binding between N-terminally His6-tagged BRD4 (BD1) (amino acids 67-152, longer constructs also being possible, preferably amino acids 44-168) and a synthetic acetylated histone H4 (Ac-H4) peptide with sequence […]-biotin. The recombinant BRD4 protein produced in-house according to Filippakopoulos et al., Nature, 2010, 468:1119-1123 was expressed in E. coli and purified by means of (Ni-NTA) affinity and (Sephadex G-75) size exclusion chromatography. The Ac-H4 peptide can be purchased, for example, from Biosyntan (Berlin, Germany). […] For this purpose, 100-fold concentrated solutions in DMSO were prepared by serial dilutions (1:3.4) of a 2 mM stock solution into a clear, 384-well microtitre plate (Greiner Bio-One, Frickenhausen, Germany). From this, 50 nl were transferred into a black test plate (Greiner Bio-One, Frickenhausen, Germany). […] This was followed by a 10-minute incubation step at 22° C. for the pre-equilibration of putative complexes between BRD4 and the substances. […] The mixture was then incubated in the dark at 22° C. for one hour and then at 4° C. for at least 3 hours and for no longer than overnight. The formation of BRD4/Ac-H4 complexes was determined by the measurement of the resonance energy transfer from the streptavidin-Eu cryptate to the anti-6His-XL665 antibody present in the reaction. For this purpose, the fluorescence emission was measured at 620 nm and 665 nm after excitation at 330-350 nm in a TR-FRET measuring instrument, for example a Rubystar or Pherastar (both from BMG Lab Technologies, Offenburg, Germany) or a Viewlux (Perkin-Elmer). The ratio of the emissions at 665 nm and at […] was taken as an indicator of the amount of BRD4/Ac-H4 complexes formed. The data (ratios) obtained were normalized, with 0% inhibition corresponding to the mean from the measurements for a set of controls (typically 32 data points) in which all the reagents were present. In these, in place of test substances, 50 nl of DMSO (100%) were used Inhibition of 100% corresponded to the mean from the measurements for a set of controls (typically 32 data points) in which all the reagents except BRD4 were present. The IC50 was determined by regression analysis based on a 4-parameter equation (minimum, maximum, IC50, Hill; […])).

[2] = tested on: MOLM-13 cells; experiment: Cell proliferation assay (alamarBlue), MOLM-13; assay type: cell-based; details: Homo sapiens, acute myeloid leukaemia, 96 hours incubation
Procedure: (§1) In accordance with the invention, the ability of the substances to inhibit cell proliferation was determined Cell viability was determined by means of the alamarBlue® reagent (Invitrogen) in a Victor ×3 Multilabel Reader (Perkin Elmer). The excitation wavelength was 530 nm and the emission wavelength […].
The MOLM-13 cells (DSMZ, ACC 554) were sown at a concentration of 4000 cells/well in 100 μl of growth medium (RPMI1640, 10% FCS) on 96-well microtitre plates.
(§2) After overnight incubation at 37° C., the fluorescence values (CI values) were determined. Then the plates were treated with various substance dilutions (1E-5 M, 3E-6 M, 1E-6 M, 3E-7 M, 1E-7 M, 3E-8 M, 1E-8 M) and incubated at 37° C. over 96 (MOLM-13, B16F10, MDA-MB-431 cells), 120 (MOLP-8 cells) or 168 (LAPC-4 cells) hours. Subsequently, the fluorescence values were determined (CO values). For the data analysis, the CI values were subtracted from the CO values and the results were compared between cells which had been treated with various dilutions of the substance or only with buffer solution. The IC50 values (substance concentration needed for 50% inhibition of cell proliferation) were calculated therefrom.
(§3) The substances were tested in the cell lines in Table 1, which represent the indications specified by way of example: […]

[3] = tested on: LAPC-4 cells; experiment: Cell proliferation assay (alamarBlue), LAPC-4; assay type: cell-based; details: Homo sapiens, LAPC4, prostate cancer, 1 nM methyltrienolone, 168 hours incubation
Procedure: as §1
The LAPC-4 cells (ATCC, PTA-1441TM) were sown at a concentration of 4000 cells/well in 100 μl of growth medium (RPMI1640, 2 mM L-glutamine, 10% cFCS) on 96-well microtitre plates. One day later, the LAPC-4 cells were treated with 1 nM methyltrienolone and various substance dilutions.
as §2, §3

[4] = tested on: B16F10 cells; experiment: Cell proliferation assay (alamarBlue), B16F10; assay type: cell-based; details: Mus musculus, B16-F10, melanoma (BRAF wild-type), 96 hours incubation
Procedure: as §1
The B16F10 cells (ATCC, CRL-6475) were sown at a concentration of 300-500 cells/well in 100 μl of growth medium (DMEM with phenol red, 10% FCS) on 96-well microtitre plates.
as §2, §3

[5] = tested on: MOLP-8 cells; experiment: Cell proliferation assay (alamarBlue), MOLP-8; assay type: cell-based; details: Homo sapiens, multiple myeloma, 120 hours incubation
Procedure: as §1
The MOLP-8 cells (DSMZ, ACC 569) were sown at a concentration of 4000 cells/well in 100 μl of growth medium (RPMI1640, 20% FCS) on 96-well microtitre plates.
as §2, §3

[6] = tested on: MDA-MB-231 cells; experiment: Cell proliferation assay (alamarBlue), MDA-MB-231; assay type: cell-based; details: Homo sapiens, mammary carcinoma, 96 hours incubation, read-out: Breast MDA-MB-231 IC50
Procedure: as §1
The MDA-MB-231 cells (DSMZ, ACC 732) were sown at a concentration of 4000 cells/well in 100 μl of growth medium (DMEM/Ham's F12 medium, 10% FCS) on 96-well microtitre plates.
as §2, §3

[7] = BRD4 (BD1) / acetylated histone H4 peptide, TR-FRET, read-out: IC50 (BRD4)

Structure (SMILES): Cc1c2c(cn1C)-n1c(C)nnc1[C@H](CC(=O)N1CCC3(COC3)C1)N=C2c1ccc(Cl)cc1 [Example 13, (−)-2-[(4S)-6-(4-Chlorophenyl)-1,7,8-trimethyl-4,8-dihydropyrrolo[3,4-f][1,2,4]triazolo[4,3-a][1,4]diazepin-4-yl]-1-(2-oxa-6-azaspiro[3.4]oct-6-yl)ethanone]
- pIC50 [1, 7]: 7.15
- pIC50 [2]: 6.39
- pIC50 [3]: 6.64

Structure (SMILES): Cc1c2c(cn1C)-n1c(C)nnc1[C@H](CC(=O)N1CC3CCC1CC3)N=C2c1ccc(Cl)cc1 (single isomer, unassigned; (-)) [Example 14]
- pIC50 [1, 7]: 7.00
- pIC50 [2]: 6.16
- pIC50 [3]: 6.28

Structure (SMILES): Cc1c2c(cn1C)-n1c(C)nnc1[C@H](CC(=O)N1CC3CCC(C1)O3)N=C2c1ccc(Cl)cc1 (single isomer, unassigned; (-)) [Example 8]
- pIC50 [1, 7]: 6.72
- pIC50 [2]: 6.12
- pIC50 [3]: 6.27

Structure (SMILES): Cc1c2c(cn1C)-n1c(C)nnc1[C@H](CC(=O)N1CC3(CCS3(=O)=O)C1)N=C2c1ccc(Cl)cc1 [Example 3, (−)-2-[(4S)-6-(4-Chlorophenyl)-1,7,8-trimethyl-4,8-dihydropyrrolo[3,4-f][1,2,4]triazolo[4,3-a][1,4]diazepin-4-yl]-1-(1,1-dioxo-1λ^6-1-thia-6-azaspiro[3.3]hept-6-yl)ethan-1-one]
- pIC50 [1]: 7.70
- pIC50 [2]: 6.96
- pIC50 [4]: 6.80
- pIC50 [5]: 6.85
- pIC50 [6]: 6.52
- pIC50 [3]: 6.96

Structure (SMILES): Cc1c2c(cn1C)-n1c(C)nnc1[C@H](CC(=O)N1CC3CCC(C3)C1)N=C2c1ccc(Cl)cc1 (single isomer, unassigned; (-)) [Example 10]
- pIC50 [1, 7]: 6.51
- pIC50 [2]: 5.84

Structure (SMILES): Cc1c2c(cn1C)-n1c(C)nnc1[C@H](CC(=O)N1CCC3(CC1)COC3)N=C2c1ccc(Cl)cc1 [Example 12, (−)-2-[(4S)-6-(4-Chlorophenyl)-1,7,8-trimethyl-4,8-dihydropyrrolo[3,4-f][1,2,4]triazolo[4,3-a][1,4]diazepin-4-yl]-1-(2-oxa-7-azaspiro[3.5]non-7-yl)ethanone]
- pIC50 [1, 7]: 6.92
- pIC50 [2]: 6.32

Structure (SMILES): Cc1nnc2n1-c1cn(C)nc1C(c1ccc(Cl)cc1)=N[C@H]2CC(=O)N1CC2(CCS2(=O)=O)C1 [Example 15, 2-[(4S)-6-(4-Chlorophenyl)-1,8-dimethyl-4,8-dihydropyrazolo[3,4-f][1,2,4]triazolo[4,3-a][1,4]diazepin-4-yl]-1-(1,1-dioxido-1-thia-6-azaspiro[3.3]hept-6-yl)ethanone]
- pIC50 [1, 7]: 6.10
- pIC50 [2]: 5.57

Structure (SMILES): Cc1c2c(cn1C)-n1c(C)nnc1[C@H](CC(=O)N1CC3CC1CO3)N=C2c1ccc(Cl)cc1 (stereo in doubt) [Example 7, (−)-2-[(4S)-6-(4-Chlorophenyl)-1,7,8-trimethyl-4,8-dihydropyrrolo[3,4-f][1,2,4]triazolo[4,3-a][1,4]diazepin-4-yl]-1-{(1S,4S)-2-oxa-5-azabicyclo[2.2.1]hept-5-yl}ethan-1-one]
- pIC50 [1, 7]: 6.68

Structure (SMILES): Cc1c2c(cn1C)-n1c(C)nnc1[C@H](CC(=O)N1C3CCC1CC(=O)C3)N=C2c1ccc(Cl)cc1 (single isomer, unassigned; (-)) [Example 6]
- pIC50 [1, 7]: 6.62
- pIC50 [2]: 5.91
- pIC50 [4]: 6.05
- pIC50 [3]: 6.28

Structure (SMILES): Cc1c2c(cn1C)-n1c(C)nnc1[C@H](CC(=O)N1CC3(COC3)C1)N=C2c1ccccc1 [Example 2, 2-(1,7,8-Trimethyl-6-phenyl-4,8-dihydropyrrolo[3,4-f][1,2,4]triazolo[4,3-a][1,4]diazepin-4-yl)-1-(2-oxa-6-azaspiro[3.3]hept-6-yl)ethan-1-one]
- pIC50 [1, 7]: 6.85
- pIC50 [2]: 6.05
- pIC50 [4]: 5.70
- pIC50 [3]: 6.04

- pIC50 [1, 7]: 6.16
Structure (SMILES): Cc1c2c(cn1C)-n1c(C)nnc1[C@H](CC(=O)N1CC3(CCOCC3)C1)N=C2c1ccc(Cl)cc1 [Example 11, (−)-2-[(4S)-6-(4-Chlorophenyl)-1,7,8-trimethyl-4,8-dihydropyrrolo[3,4-f][1,2,4]triazolo[4,3-a][1,4]diazepin-4-yl]-1-(7-oxa-2-azaspiro[3.5]non-2-yl)ethanone]

Structure (SMILES): Cc1c2c(cn1C)-n1c(C)nnc1[C@H](CC(=O)N1CC3(COC3)C1)N=C2c1ccc(Cl)cc1 [Example 1, (−)-2-[(4S)-6-(4-Chlorophenyl)-1,7,8-trimethyl-4,8-dihydropyrrolo[3,4-f][1,2,4]triazolo-[4,3-a][1,4]diazepin-4-yl]-1-(2-oxa-6-azaspiro[3.3]hept-6-yl)ethan-1-one]
- pIC50 [1, 7]: 6.82
- pIC50 [2]: 6.15
- pIC50 [4]: 5.94
- pIC50 [3]: 6.17

- pIC50 [1, 7]: 6.34
Structure (SMILES): Cc1nnc2n1-c1cn(C)nc1C(c1ccc(Cl)cc1)=N[C@H]2CC(=O)N1CC2(COC2)C1 [Example 4, 2-[(4S)-6-(4-Chlorophenyl)-1,8-dimethyl-4,8-dihydropyrazolo[3,4-f][1,2,4]triazolo[4,3-a][1,4]diazepin-4-yl]-1-(2-oxa-6-azaspiro[3.3]hept-6-yl)ethan-1-one]

Structure (SMILES): Cc1c2c(cn1C)-n1c(C)nnc1[C@H](CC(=O)N1CCOC3(CCCCC3)C1)N=C2c1ccc(Cl)cc1 [Example 9, (−)-2-[(4S)-6-(4-Chlorophenyl)-1,7,8-trimethyl-4,8-dihydropyrrolo[3,4-f][1,2,4]triazolo[4,3-a][1,4]diazepin-4-yl]-1-(1-oxa-4-azaspiro[5.5]undec-4-yl)ethanone]
- pIC50 [1, 7]: 7.10
- pIC50 [2]: 5.98
- pIC50 [3]: 5.97
